In patent US20230085307A1, “PYRIDAZINONE COMPOUND AND HERBICIDE” (NISSAN CHEMICAL CORPORATION, priority 2019, published 2023):

Experiments:
[1] = test system: blackgrass; assay: Test Example 4: herbicidal effect by soil treatment (Table 19, symbol J); format: in vivo, blackgrass (Alopecurus myosuroides)
Method in brief: (§1)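 Step 1: sow seeds in sterilized diluvial soil, cover ~1.5 cm. Step 2: spray diluted emulsion onto soil surface at predetermined rate. Step 3: greenhouse, 25–30° C, three weeks. Step 4: grade effect on each plant by earlier criteria.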

[2] = test system: barnyard grass; assay: Test Example 5: herbicidal effect by foliage application, plastic box (Table 20, symbol H); format: in vivo, barnyard grass (Echinochloa crus-galli); details: foliage application, 320 g/ha
Method in brief: (§2)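 Foliar spray test: emulsion formulation diluted in water to a set application rate, sprayed onto 14-day-old plants raised in diluvial soil at 25° C to 30° C under glass. Both herbicidal effect and crop effect rated visually three weeks later.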

[3] = test system: lambsquarters; assay: Test Example 5: herbicidal effect by foliage application, plastic box (Table 20, symbol O); format: in vivo, lambsquarters (Chenopodium album); details: foliage application, 320 g/ha
Method in brief: as §2

[4] = test system: southern crabgrass; assay: Test Example 4: herbicidal effect by soil treatment (Table 19, symbol F); format: in vivo, southern crabgrass (Digitaria ciliaris)
Method in brief: as §1

[5] = test system: wild oat; assay: Test Example 5: herbicidal effect by foliage application, plastic box (Table 20, symbol I); format: in vivo, wild oat (Avena fatua); details: foliage application, 320 g/ha
Method in brief: as §2

[6] = test system: lambsquarters; assay: Test Example 4: herbicidal effect by soil treatment (Table 19, symbol O); format: in vivo, lambsquarters (Chenopodium album)
Method in brief: as §1

[7] = test system: oval-leafed pondweed; assay: Test Example 1: herbicidal activity, application before weed generation under submerged conditions (Table 16, symbol C); format: in vivo, oval-leafed pondweed (Monochoria vaginalis)
Method in brief: (§3)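 Submerged Wagner pots (alluvial soil, 4 cm water) sown with weed seeds and planted with 2.5-leaf rice seedlings; emulsifiable concentrate diluted in water applied to water surface on sowing day. Held in greenhouse at 25-30 °C; injury scored 0-5 by herbicidal rate after three weeks.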

[8] = test system: Italian ryegrass; assay: Test Example 4: herbicidal effect by soil treatment (Table 19, symbol K); format: in vivo, Italian ryegrass (Lolium multiflorum)
Method in brief: as §1

[9] = test system: rice flat sedge; assay: Test Example 3: herbicidal effect by foliage application, Wagner pot (Table 18, symbol E); format: in vivo, rice flat sedge (Cyperus iria)
Method in brief: (§4)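 Plants were sown in alluvial soil held under 0.1–0.5 cm standing water and grown 14 days in a greenhouse at 25–30 °C. An emulsifiable formulation, water-diluted to the set dose, was then sprayed onto the foliage, and effects were scored three weeks later using previously defined criteria.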

[10] = test system: windgrass; assay: Test Example 5: herbicidal effect by foliage application, plastic box (Table 20, symbol L); format: in vivo, windgrass (Apera spica-venti); details: foliage application, 320 g/ha
Method in brief: as §2

[11] = test system: Chinese sprangletop; assay: Test Example 3: herbicidal effect by foliage application, Wagner pot (Table 18, symbol D); format: in vivo, chinese sprangletop (Leptochloa chinensis)
Method in brief: as §4

[12] = test system: blackgrass; assay: Test Example 5: herbicidal effect by foliage application, plastic box (Table 20, symbol J); format: in vivo, blackgrass (Alopecurus myosuroides); details: foliage application, 320 g/ha
Method in brief: as §2

[13] = test system: persian speedwell; assay: Test Example 5: herbicidal effect by foliage application, plastic box (Table 20, symbol R); format: in vivo, Persian speedwell (Veronica persica); details: foliage application, 320 g/ha
Method in brief: as §2

[14] = test system: southern crabgrass; assay: Test Example 5: herbicidal effect by foliage application, plastic box (Table 20, symbol F); format: in vivo, southern crabgrass (Digitaria ciliaris); details: foliage application, 320 g/ha
Method in brief: as §2

[15] = test system: late watergrass; assay: Test Example 1: herbicidal activity, application before weed generation under submerged conditions (Table 16, symbol A); format: in vivo, late watergrass (Echinochloa oryzicola)
Method in brief: as §3

[16] = test system: velvetleaf; assay: Test Example 4: herbicidal effect by soil treatment (Table 19, symbol M); format: in vivo, velvetleaf (Abutilon theophrasti)
Method in brief: as §1

[17] = test system: green foxtail; assay: Test Example 4: herbicidal effect by soil treatment (Table 19, symbol G); format: in vivo, green foxtail (Setaria viridis)
Method in brief: as §1

[18] = test system: Italian ryegrass; assay: Test Example 5: herbicidal effect by foliage application, plastic box (Table 20, symbol K); format: in vivo, Italian ryegrass (Lolium multiflorum); details: foliage application, 320 g/ha
Method in brief: as §2

[19] = test system: barnyard grass; assay: Test Example 3: herbicidal effect by foliage application, Wagner pot (Table 18, symbol H); format: in vivo, barnyard grass (Echinochloa crus-galli)
Method in brief: as §4

[20] = test system: persian speedwell; assay: Test Example 4: herbicidal effect by soil treatment (Table 19, symbol R); format: in vivo, Persian speedwell (Veronica persica)
Method in brief: as §1

[21] = test system: chickweed; assay: Test Example 4: herbicidal effect by soil treatment (Table 19, symbol P); format: in vivo, common chickweed (Stellaria media)
Method in brief: as §1

[22] = test system: barnyard grass; assay: Test Example 4: herbicidal effect by soil treatment (Table 19, symbol H); format: in vivo, barnyard grass (Echinochloa crus-galli)
Method in brief: as §1

[23] = test system: Japanese bulrush; assay: Test Example 1: herbicidal activity, application before weed generation under submerged conditions (Table 16, symbol B); format: in vivo, Japanese bulrush (Schoenoplectus juncoides)
Method in brief: as §3

[24] = test system: velvetleaf; assay: Test Example 5: herbicidal effect by foliage application, plastic box (Table 20, symbol M); format: in vivo, velvetleaf (Abutilon theophrasti); details: foliage application, 320 g/ha
Method in brief: as §2

[25] = test system: redroot pigweed; assay: Test Example 4: herbicidal effect by soil treatment (Table 19, symbol N); format: in vivo, redroot pigweed (Amaranthus retroflexus)
Method in brief: as §1

[26] = test system: windgrass; assay: Test Example 4: herbicidal effect by soil treatment (Table 19, symbol L); format: in vivo, windgrass (Apera spica-venti)
Method in brief: as §1

[27] = test system: green foxtail; assay: Test Example 5: herbicidal effect by foliage application, plastic box (Table 20, symbol G); format: in vivo, green foxtail (Setaria viridis); details: foliage application, 320 g/ha
Method in brief: as §2

[28] = test system: wild oat; assay: Test Example 4: herbicidal effect by soil treatment (Table 19, symbol I); format: in vivo, wild oat (Avena fatua)
Method in brief: as §1

[29] = amount of applied herbicide 320 g/ha

## CCCCCCOc1ccc(-c2sc3ccc(F)cc3c2-c2c(OC(=O)CCC)c(C)nn(C)c2=O)cc1 [2-041]
[1]; 320 g/ha
  herbicidal effect rating, J: blackgrass: 0 (Herbicidal rate of 5% or less (almost no effect))
[2]; 3 weeks after application
  effect on barnyard grass (H): 0 (Herbicidal rate of 5% or less (almost no effect))
[3]; 3 weeks after application
  effect on lambsquarters (O): 3 (Herbicidal rate of 40% or more and less than 70%)
[4]; 320 g/ha
  herbicidal effect rating, F: southern crabgrass: 0 (Herbicidal rate of 5% or less (almost no effect))
[5]; 3 weeks after application
  effect on wild oat (I): 0 (Herbicidal rate of 5% or less (almost no effect))
[6]; 320 g/ha
  herbicidal effect rating, O: lambsquarters: 2 (Herbicidal rate of 20% or more and less than 40%)
[7]; 320 g/ha applied herbicide
  Herbicidal effect on C: oval-leafed pondweed (grade 0-5): 0 (Herbicidal rate of 5% or less (almost no effect))
[8]; 320 g/ha
  herbicidal effect rating, K: Italian ryegrass: 0 (Herbicidal rate of 5% or less (almost no effect))
[9]; 320 g/ha
  herbicidal effect on E (rice flat sedge), rating 0-5: 1 (Herbicidal rate of 5% or more and less than 20%)
[10]; 3 weeks after application
  effect on windgrass (L): 0 (Herbicidal rate of 5% or less (almost no effect))
[11]; 320 g/ha
  herbicidal effect on D (Chinese sprangletop), rating 0-5: 3 (Herbicidal rate of 40% or more and less than 70%)
[12]; 3 weeks after application
  effect on blackgrass (J): 0 (Herbicidal rate of 5% or less (almost no effect))
[13]; 3 weeks after application
  effect on persian speedwell (R): 3 (Herbicidal rate of 40% or more and less than 70%)
[14]; 3 weeks after application
  effect on southern crabgrass (F): 0 (Herbicidal rate of 5% or less (almost no effect))
[15]; 320 g/ha applied herbicide
  Herbicidal effect on A: late watergrass (grade 0-5): 3 (Herbicidal rate of 40% or more and less than 70%)
[16]; 320 g/ha
  herbicidal effect rating, M: velvetleaf: 0 (Herbicidal rate of 5% or less (almost no effect))
[17]; 320 g/ha
  herbicidal effect rating, G: green foxtail: 0 (Herbicidal rate of 5% or less (almost no effect))
[18]; 3 weeks after application
  effect on Italian ryegrass (K): 0 (Herbicidal rate of 5% or less (almost no effect))
[19]; 320 g/ha
  herbicidal effect on H (barnyard grass), rating 0-5: 3 (Herbicidal rate of 40% or more and less than 70%)
[20]; 320 g/ha
  herbicidal effect rating, R: persian speedwell: 0 (Herbicidal rate of 5% or less (almost no effect))
[21]; 320 g/ha
  herbicidal effect rating, P: chickweed: 0 (Herbicidal rate of 5% or less (almost no effect))
[22]; 320 g/ha
  herbicidal effect rating, H: barnyard grass: 0 (Herbicidal rate of 5% or less (almost no effect))
[23]; 320 g/ha applied herbicide
  Herbicidal effect on B: Japanese bulrush (grade 0-5): 0 (Herbicidal rate of 5% or less (almost no effect))
[24]; 3 weeks after application
  effect on velvetleaf (M): 1 (Herbicidal rate of 5% or more and less than 20%)
[25]; 320 g/ha
  herbicidal effect rating, N: redroot pigweed: 0 (Herbicidal rate of 5% or less (almost no effect))
[26]; 320 g/ha
  herbicidal effect rating, L: windgrass: 0 (Herbicidal rate of 5% or less (almost no effect))
[27]; 3 weeks after application
  effect on green foxtail (G): 0 (Herbicidal rate of 5% or less (almost no effect))
[28]; 320 g/ha
  herbicidal effect rating, I: wild oat: 0 (Herbicidal rate of 5% or less (almost no effect))

## Cc1nn(C)c(=O)c(-c2c(-c3ccc(Cl)cc3)oc3ccc(F)cc23)c1O [9-016]
[1]; [29]
  J: blackgrass, herbicidal effect grade: 0 (Herbicidal rate of 5% or less (almost no effect))
[2]; three weeks after application
  herbicidal effect on barnyard grass (H): 5 (Herbicidal rate of 90% or more (almost completely withered))
[3]; three weeks after application
  herbicidal effect on lambsquarters (O): 5 (Herbicidal rate of 90% or more (almost completely withered))
[4]; [29]
  F: southern crabgrass, herbicidal effect grade: 3 (Herbicidal rate of 40% or more and less than 70%)
[5]; three weeks after application
  herbicidal effect on wild oat (I): 4 (Herbicidal rate of 70% or more and less than 90%)
[6]; [29]
  O: lambsquarters, herbicidal effect grade: 4 (Herbicidal rate of 70% or more and less than 90%)
[7]; [29]
  Herbicidal effect, C: oval-leafed pondweed: 0 (Herbicidal rate of 5% or less (almost no effect))
[8]; [29]
  K: Italian ryegrass, herbicidal effect grade: 4 (Herbicidal rate of 70% or more and less than 90%)
[9]; [29]
  Herbicidal effect on E (rice flat sedge), foliage application: 4 (Herbicidal rate of 70% or more and less than 90%)
[10]; three weeks after application
  herbicidal effect on windgrass (L): 4 (Herbicidal rate of 70% or more and less than 90%)
[11]; [29]
  Herbicidal effect on D (Chinese sprangletop), foliage application: 5 (Herbicidal rate of 90% or more (almost completely withered))
[12]; three weeks after application
  herbicidal effect on blackgrass (J): 4 (Herbicidal rate of 70% or more and less than 90%)
[13]; three weeks after application
  herbicidal effect on persian speedwell (R): 5 (Herbicidal rate of 90% or more (almost completely withered))
[14]; three weeks after application
  herbicidal effect on southern crabgrass (F): 4 (Herbicidal rate of 70% or more and less than 90%)
[15]; [29]
  Herbicidal effect, A: late watergrass: 3 (Herbicidal rate of 40% or more and less than 70%)
[16]; [29]
  M: velvetleaf, herbicidal effect grade: 1 (Herbicidal rate of 5% or more and less than 20%)
[17]; [29]
  G: green foxtail, herbicidal effect grade: 4 (Herbicidal rate of 70% or more and less than 90%)
[18]; three weeks after application
  herbicidal effect on Italian ryegrass (K): 5 (Herbicidal rate of 90% or more (almost completely withered))
[19]; [29]
  Herbicidal effect on H (barnyard grass), foliage application: 5 (Herbicidal rate of 90% or more (almost completely withered))
[20]; [29]
  R: persian speedwell, herbicidal effect grade: 5 (Herbicidal rate of 90% or more (almost completely withered))
[21]; [29]
  P: chickweed, herbicidal effect grade: 3 (Herbicidal rate of 40% or more and less than 70%)
[22]; [29]
  H: barnyard grass, herbicidal effect grade: 4 (Herbicidal rate of 70% or more and less than 90%)
[23]; [29]
  Herbicidal effect, B: Japanese bulrush: 0 (Herbicidal rate of 5% or less (almost no effect))
[24]; three weeks after application
  herbicidal effect on velvetleaf (M): 5 (Herbicidal rate of 90% or more (almost completely withered))
[25]; [29]
  N: redroot pigweed, herbicidal effect grade: 5 (Herbicidal rate of 90% or more (almost completely withered))
[26]; [29]
  L: windgrass, herbicidal effect grade: 4 (Herbicidal rate of 70% or more and less than 90%)
[27]; three weeks after application
  herbicidal effect on green foxtail (G): 5 (Herbicidal rate of 90% or more (almost completely withered))
[28]; [29]
  I: wild oat, herbicidal effect grade: 2 (Herbicidal rate of 20% or more and less than 40%)
